Counter-ions that a name gives are not always drawn.
Biological target: T1, human Mnk2a (Homo sapiens, UniProt Q9HBH9)
T1 construct: made in house; host or cells: E. coli BL21 (vector pGEX-4T1)
Assay: Mnk2a in vitro kinase assay (indirect fluorescence polarization)
Type: biochemical
Conditions: GST-Mnk2a pre-activated with ERK2, 20 μM ATP, 30 μM substrate peptide; read-out: MNK2 IC50
Description: Inhibitory potency of compounds against Mnk1, Mnk2a and other kinases was assessed with assays based on a format known to those skilled in the art as the indirect (competitive) fluorescence polarization. The assay detection system comprises a small fluorophore-labeled phospho-peptide (termed ligand) bound to a phospho-specific antibody. The product generated by the kinase reaction competes with the ligand for antibody binding. Based on the larger molecular volume of the bound ligand, which results in a lower rotation rate in solution, its emitted light has a higher degree of polarization than the one from the free ligand.
As a source of enzyme, human Mnk1 and human Mnk2a were expressed as GST fusion proteins in E. coli, purified to >80% homogeneity by glutathione affinity chromatography and activated in vitro with pre-activated ERK2. In brief, the open reading frames of human Mnk1 and Mnk2a were amplified from cDNA using the forward/reverse primer pairs
(utilized restriction sites underlined), respectively, and cloned into the BamHI and SalI sites of the vector pGEX-4T1 (Amersham, Sweden, cat. no. 27-4580-01). These constructs allow prokaryotic expression of Mnk1 or Mnk2a as fusion protein with a N-terminal glutathione S-transferase (GST) tag, referred to as GST-Mnk1 or GST-Mnk2a. The following expression and purification procedure was identical for GST-Mnk1 and GST-Mnk2a, referring in general to GST-Mnk, when not distinguishing between the two isoforms. Expression of GST-Mnk was in E. coli BL21 (Merck Biosciences, Germany, cat. no. 69449). Cells were grown in LB-Bouillon (Merck, Germany, cat. no. 1.10285) supplemented with 100 μg/ml ampicillin (Sigma, Germany, cat. no. A9518) at 37° C. When the culture had reached a density corresponding to an A600 of 0.8, an equal volume of ice cold LB/ampicillin was added, the culture transferred to 25° C. and induced for 4 h with 1 mM isopropyl thiogalactoside (IPTG, Roth, Germany, cat. no. 2316.4). Cells harvested by centrifugation were resuspended in 10 ml lysis buffer (50 mM tris(hydroxymethyl)aminomethane hydrochloride (Tris/HCl, Sigma, Germany, cat. no. T5941) pH 7.5, 300 mM sodium chloride (NaCl, Sigma, Germany, cat. no. S7653), 5% (w/v) glycerol (Sigma, Germany, cat. no. G5516), 3 mM DTT dithiotreitol (DTT, Sigma, Germany, cat. no. D9779)) per gram wet weight cell pellet. Lysates were prepared by disruption of cells with a sonifier and subsequent clearing by centrifugation at 38000 g for 45 min at 4° C.
The lysate was applied to a GSTPrep FF 16/10 column (Amersham, Sweden, cat. no. 17-5234-01) equilibrated with lysis buffer. Removal of unbound material was with 3 column volumes (CV) lysis buffer. Elution was with 2 CV of elution buffer (50 mM Tris/HCl pH 7.5, 300 mM NaCl, 5% (w/v) glycerol, 20 mM glutathione (Sigma, Germany, cat. no. G4251)). Peak fractions were pooled and the protein transferred into storage buffer (50 mM Tris/HCl pH 7.5, 200 mM NaCl, 0.1 mM ethylene glycol-bis(2-aminoethylether)-N,N,N′,N′-tetraacetic acid (EGTA, Aldrich, Germany, cat. no. 23, 453-2), 1 mM DTT, 10% (w/v) glycerol, 0.5 M sucrose (Sigma, Germany, cat. no. SO389) by gel filtration on a PD10 desalting column (Amersham, Sweden, cat. no. 17-0851-01). Aliquots were shock frozen in liquid nitrogen and stored at −80° C.
Activation of Mnk1 and Mnk2a was at a concentration of 2.5 μM of either purified GST-Mnk1 or GST-Mnk2a by incubation with 150 nM pre-activated NHis-ERK2 (see ERK2 assay for preparation) and 50 μM adenosine triphosphate (ATP, Sigma, cat. no. A2699) in a buffer comprising 20 mM N-(2-hydroxyethyl)piperazine-N′-(2-ethanesulfonic acid) (HEPES, Fluka, Germany, cat. no 54459)/potassium hydroxide (KOH, Roth, Germany, cat. no 6751.1) pH 7.4, 10 mM magnesium chloride (MgCl2, Sigma, Germany, cat. no. M2670), 0.25 mM DTT, 0.05% (w/v) polyoxyethylene 20 stearylether (Brij 78, Sigma, Germany, cat. no. P4019) (HMDB buffer) for 45 min at 30° C. […]

T1 sequence (Q9HBH9 whole entry): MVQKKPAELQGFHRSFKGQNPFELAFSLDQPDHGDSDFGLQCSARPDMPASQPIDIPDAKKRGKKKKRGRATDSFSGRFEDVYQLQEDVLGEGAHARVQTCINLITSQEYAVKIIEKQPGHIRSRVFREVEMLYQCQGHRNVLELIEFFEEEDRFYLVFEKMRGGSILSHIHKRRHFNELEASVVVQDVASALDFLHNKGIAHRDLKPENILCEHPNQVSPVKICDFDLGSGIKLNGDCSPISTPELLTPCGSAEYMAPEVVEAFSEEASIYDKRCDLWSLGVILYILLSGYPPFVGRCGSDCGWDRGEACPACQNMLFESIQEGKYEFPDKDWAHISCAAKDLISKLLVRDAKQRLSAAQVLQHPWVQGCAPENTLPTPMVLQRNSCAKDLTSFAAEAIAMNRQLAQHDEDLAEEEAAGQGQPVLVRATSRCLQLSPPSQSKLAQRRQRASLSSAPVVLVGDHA

| IC50 [nM] | SMILES |
| --- | --- |
| 22 | Cc1c(C(=O)NCc2cn(C)cn2)sc2ncnc(Nc3ccc(F)cc3OC3CCOCC3)c12 [Example 184] |
| 25 | Cc1c(C(=O)NCCCN2CC(F)(F)C2)sc2ncnc(Nc3ccc(F)cc3OC3CCOCC3)c12 [Example 125] |
| 12 | Cc1c(C(N)=O)sc2ncnc(Nc3ccc(F)cc3O[C@@H]3CCOC3)c12 [Example 104] |
| 51 | Cc1c(C(=O)NCCn2cccn2)sc2ncnc(Nc3ccc(F)cc3OC3CCOCC3)c12 [Example 183] |
| 40 | Cc1c(C(=O)NC2CCN(C)C[C@@H]2O)sc2ncnc(Nc3ccc(F)cc3OC3CCOCC3)c12 (stereo partly drawn) [Example 257, 4-[4-Fluoro-2-(tetrahydro-pyran-4-yloxy)-phenylamino]-5-methyl-thieno[2,3-d]pyrimidine-6-carboxylic acid ((S)-3-hydroxy-1-methyl-piperidin-4-yl)-amide-hydrochloride] |
| 79 | Cc1c(C(=O)N[C@H]2CCC[C@@H]2O)sc2ncnc(Nc3cccnc3OC3CCOCC3)c12 [Compound 278, 5-Methyl-4-[2-(tetrahydro-pyran-4-yloxy)-pyridin-3-ylamino]-thieno[2,3-d]pyrimidine-6-carboxylic acid ((1S,2S)-2-hydroxy-cyclopentyl)-amide] |
| 62 | Cc1c(C(=O)NCC2CCOC2)sc2ncnc(Nc3ccc(F)cc3OC3CCCNC3)c12 (centres unmarked) [Example 24] |
| 29 | Cc1c(C(=O)NCc2cocn2)sc2ncnc(Nc3ccc(F)cc3OC3CCOCC3)c12 [Example 198] |
| 39 | Cc1c(C(=O)NCCO)sc2ncnc(Nc3cccnc3O[C@@H]3CCCOC3)c12 [Example 260, 5-Methyl-4-{2-[(R)-(tetrahydro-pyran-3-yl)oxy]-pyridin-3-ylamino}-thieno[2,3-d]pyrimidine-6-carboxylic acid (2-hydroxy-ethyl)-amide] |
| 6 | Cc1c(C(N)=O)sc2ncnc(Nc3ccc(F)cc3O[C@@H]3CCN(S(C)(=O)=O)C3)c12 [Example 99, 4-[4-Fluoro-2-((R)-1-methanesulfonyl-pyrrolidin-3-yloxy)-phenylamino]-5-methyl-thieno[2,3-d]pyrimidine-6-carboxylic acid amide] |
| 80 | Cc1ccc(Nc2ncnc3sc(C(N)=O)c(C)c23)c(O[C@H]2CCCNC2)c1 [Example 68, 4-[4-Methyl-2-((S)-piperidin-3-yloxy)-phenylamino]-5-methyl-thieno[2,3-d]pyrimidine-6-carboxylic acid amide] |
| 76 | Cc1c(C(=O)NCCN2CCNC2=O)sc2ncnc(Nc3ccc(F)cc3OC3CCOCC3)c12 [Example 214] |
| 215 | Cc1c(C(=O)NCC(C)(C)CN(C)C)sc2ncnc(Nc3ccc(F)cc3OC3CCOCC3)c12 [Example 154] |
| 50 | CNC(=O)CNC(=O)c1sc2ncnc(Nc3ccc(F)cc3OC3CCOCC3)c2c1C [Example 175] |
| 3 | Cc1c(C(N)=O)sc2ncnc(Nc3ccc(F)cc3O[C@@H]3CCCN(CC(F)F)C3)c12 [Example 74, 4-{2-[(R)-1-(2,2-Difluoro-ethyl)-piperidin-3-yloxy]-4-fluoro-phenylamino}-5-methyl-thieno[2,3-d]pyrimidine-6-carboxylic acid amide] |
| 2290 | CCN(CC)CCCNC(=O)c1sc2ncnc(Nc3ccc(F)cc3OC3CCOCC3)c2c1C [Example 223] |
| 420 | Cc1c(C(N)=O)sc2ncnc(Nc3ccc(F)cc3O[C@H]3C[C@@H](CO)N(S(C)(=O)=O)C3)c12 [Example 113, 4-[4-Fluoro-2-((3S,5S)-5-hydroxymethyl-1-methanesulfonyl-pyrrolidin-3-yloxy)-phenylamino]-5-methyl-thieno[2,3-d]pyrimidine-6-carboxylic acid amide] |
| 14 | CNC(=O)c1sc2ncnc(Nc3ccc(F)cc3OC3CCN(S(C)(=O)=O)C3)c2c1C (centres unmarked) [Example 90] |
| 34 | Cc1c(C(=O)NCCCN(C)C)sc2ncnc(Nc3cccnc3O[C@@H]3CCCOC3)c12 [Example 265] |
| 160 | Cc1c(C(=O)NC[C@@H]2CCC(=O)N2)sc2ncnc(Nc3ccc(F)cc3OC3CCCNC3)c12 (some centres unmarked) [Example 51] |
